In patent publication US20240409647A1, “BISPECIFIC BINDING PROTEINS AGAINST ALARMINS AND USES THEREOF” (SINOMAB BIOSCIENCE LIMITED, priority 2022, published 2024):

Assays:
[1] = test system: OVA-induced murine experimental asthma; assay: Ovalbumin induced asthma on mice; format: in vivo, BALB/c mice
Protocol: Female BALB/c mice were induced with ovalbumin to elicit asthma like symptoms on mice. Briefly, mice were each sensitized with […] of ovalbumin (OVA) emulsified in 1 mg of aluminum hydroxide in a total volume of […] via intraperitoneal (IP) injections on Days 0 and 12. Mice were divided into 6 groups with 8 mice per group. Sensitized mice were exposed to aerosolized 5% OVA in sterile water, 20 minutes/day for six consecutive days (Days 19, 20, 21, 22, 23 and 24). Naïve mice inhaled the atomized water, 20 minutes/day, for six consecutive days. Mice were then i.v. injected with different concentrations of SM17, PBS (control), or dexamethasone (Dex) 4 hours before aerosol challenge, once per day (Day 19 to 24).
On day 25 (24 hours after the last OVA challenge), mice were anesthetized with Telazol® (20-40 mg/kg i.p.) and connected to a computer-controlled ventilator via the tracheal cannula. The time of expiration/inspiration and the respiratory rate were preset at 1.5:1 and 90/min, respectively. After a steady baseline was established, the resistance of the lung (RL) was recorded to evaluate the reaction of mice to a methacholine chloride gradient (0.025 and 0.05 mg/kg body weight); the methacholine chloride was injected into the vena jugulars externa at 5-min intervals via a fine needle. […] BALF from mice sacrificed on Day 25 was retrieved, and inflammatory cell number and the concentrations of inflammatory cytokine from BALF were determined.
Results are presented as means±SEM. One Way ANOVA, Dunnett's Multiple Comparison Test, *: P<0.05; **: P<0.01. Dex=Dexamethasone.

[2] = biological target: T1, rhesus monkey IL17RB expressed on HEK293 cells (Macaca mulatta, UniProt H9FWT9); assay: Flow cytometry, SM17 binding to HEK293 transfected with rhesus monkey IL-17RB; settings: SM17 1 μg/ml
T1 construct: transfected either with full-length human or rhesus monkey IL-17RB (SinoBiological, Beijing, China); host or cells: HEK293
T1 sequence (H9FWT9 18-502): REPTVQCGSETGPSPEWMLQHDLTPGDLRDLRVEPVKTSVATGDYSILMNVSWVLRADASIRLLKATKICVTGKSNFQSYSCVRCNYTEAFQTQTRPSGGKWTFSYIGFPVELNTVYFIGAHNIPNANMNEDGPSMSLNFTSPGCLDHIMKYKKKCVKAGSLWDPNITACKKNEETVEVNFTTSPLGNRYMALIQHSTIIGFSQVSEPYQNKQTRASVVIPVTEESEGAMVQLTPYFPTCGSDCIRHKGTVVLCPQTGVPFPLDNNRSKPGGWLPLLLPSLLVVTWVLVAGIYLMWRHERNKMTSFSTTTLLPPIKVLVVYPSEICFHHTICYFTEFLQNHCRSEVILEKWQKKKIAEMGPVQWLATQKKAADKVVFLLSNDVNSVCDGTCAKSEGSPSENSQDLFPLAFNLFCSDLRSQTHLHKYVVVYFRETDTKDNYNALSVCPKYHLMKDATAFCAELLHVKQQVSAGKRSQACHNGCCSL
Protocol: (§1) HEK293 cells (ATCC, Manassas, VA) transfected either with full-length human or rhesus monkey IL-17RB (SinoBiological, Beijing, China) were examined for binding to SM17 following standard protocol for flow cytometry. Wild-type HEK293 stained with IgG4 isotype control (Sino Biological) was used as the negative control and for gating purpose. Briefly, HEK293 cells at a density of 3×10^5 cells were seeded into each well of a 6-well plate. On the next day, human or rhesus Il-17RB full length cDNA were first cloned into pCMV3-untagged expression plasmid through standard molecular cloning technique, and then expression plasmids for human or rhesus IL-17RB were transfected into HEK293 cells by lipofection (Lipofectamine 3000 reagent; Thermo Fisher Scientific). Transfected cells were trypsinized, harvested, and fixed with 4% paraformaldehyde (5 minutes). SM17, or human IgG4 control at 1 μg/ml in washing buffer (3% BSA in PBS) were added to the resuspend cells for incubation at RT for 30 min before Alexa Fluor® 647-conjugated goat anti-human IgG specific antibody (1:2000 dilution in washing buffer) (Jackson ImmunoResearch) was added for flow cytometry analysis using the BD FACSVerse cell analyzer (Becton Dickenson, Franklin Lakes, NJ).

wild type HEK293 = assay: Flow cytometry, SM17 binding to wild type HEK293; settings: SM17 1 μg/ml
Protocol: as §1

hIL 17RD = biological target: T2, hIL 17RD (Homo sapiens, UniProt Q8NFM7); assay: ELISA, SM17 specificity against IL-17 receptor subunits (IL17RD); format: binding; settings: 0.4 to 0.00064 μg/mL
T2 construct: purchased R&D systems
T2 sequence (Q8NFM7 17-739): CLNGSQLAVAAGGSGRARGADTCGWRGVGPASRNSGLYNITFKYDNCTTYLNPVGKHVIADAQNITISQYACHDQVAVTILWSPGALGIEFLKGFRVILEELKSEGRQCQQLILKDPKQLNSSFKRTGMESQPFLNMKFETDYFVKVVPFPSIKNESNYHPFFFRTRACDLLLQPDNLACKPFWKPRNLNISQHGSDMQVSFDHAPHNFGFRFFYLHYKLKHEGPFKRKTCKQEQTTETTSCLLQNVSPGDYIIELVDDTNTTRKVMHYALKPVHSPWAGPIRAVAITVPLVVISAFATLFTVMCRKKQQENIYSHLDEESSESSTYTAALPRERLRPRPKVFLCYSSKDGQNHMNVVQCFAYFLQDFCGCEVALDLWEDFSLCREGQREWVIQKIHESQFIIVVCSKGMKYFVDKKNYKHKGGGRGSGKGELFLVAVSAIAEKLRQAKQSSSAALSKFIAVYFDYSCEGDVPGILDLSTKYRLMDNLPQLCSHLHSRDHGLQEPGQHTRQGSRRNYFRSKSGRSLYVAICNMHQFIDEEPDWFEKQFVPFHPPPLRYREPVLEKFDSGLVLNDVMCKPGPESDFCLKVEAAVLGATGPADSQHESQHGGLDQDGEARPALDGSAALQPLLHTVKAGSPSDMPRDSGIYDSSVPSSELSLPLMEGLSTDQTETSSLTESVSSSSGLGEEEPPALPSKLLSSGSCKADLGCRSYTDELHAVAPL
Protocol: A standard ELISA method was used to determine the specificity of SM17 against other human IL17 receptor subunits. Similarly, serially diluted SM17 at different concentrations (final concentrations at 0.4, 0.08, 0.016, 0.0032 and 0.00064 μg/m, respectively) was added to the wells of ELISA plates coated either with human IL-17 receptor subunits A, C, D and E (IL17RA, IL17RC, IL17RD, and IL17RE) (R&D systems).

binding of SM17 to RhIL17RB-HEK293 [2]: 39%
binding of SM17 to wild type HEK293 (wild type HEK293): ~7%
binding of SM17 to IL17RD (in words) (hIL 17RD): No obvious bindings
Substance: SM17: humanized anti-IL17RB monoclonal antibody, human IgG4 isotype; HC SEQ ID NO: 32, LC SEQ ID NO: 33
airway hyperresponsiveness (in words) ([1]; 1 mg/kg or 3 mg/kg SM17 before each OVA aerosolization): mild but not significant abrogation in AHR
airway hyperresponsiveness (in words) ([1]; 5 mg/kg SM17 i.v. once per day, Day 19 to 24, methacholine challenge day 25): prevented airway hyperresponsiveness
number of pulmonary infiltrated eosinophils (in words) ([1]; SM17 at 5 mg/kg): significantly reduce the number of pulmonary infiltrated eosinophils
IL-13 levels in BALF (in words) ([1]; SM17 at 5 mg/kg, Day 25): significantly reduced the IL-13 levels
eosinophil number in BALF (in words) ([1]; SM17 at 5 mg/kg, Day 25): significantly reduced
IL-5 levels in BALF (in words) ([1]; SM17 at 1, 3 and 5 mg/kg, Day 25): significantly reduced the IL-5 levels in BALF
